From ChEMBL document CHEMBL1201862, “PubChem BioAssay data set” (2004)
Active and inactive are the calls of the source.

Experiments:
[1] = THP-1 cell cytotoxicity, dose response, cytotoxicity control for Vif-APOBEC3G degradation inhibitor project, THP-1 cells (AID 1117359); assay type: functional; conditions: Human immunodeficiency virus 1, THP-1
[2] = inhibitors of firefly luciferase expression or activity, dose response, H4 neuroglioma cells, luminescence (AID 1990); assay type: functional, cell-based
[3] = biological target: T1, RNA-binding protein pos-1 (Caenorhabditis elegans, UniProt G5EF15); test: inhibitors of POS-1/mex-3 RNA binding, dose response, biochemical, fluorescence polarization (AID 1964);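 further: purified POS-1 fused to maltose binding protein made in E. coli; potency of compounds blocking POS-1 binding to fluorescent RNA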
T1 sequence (G5EF15 whole entry): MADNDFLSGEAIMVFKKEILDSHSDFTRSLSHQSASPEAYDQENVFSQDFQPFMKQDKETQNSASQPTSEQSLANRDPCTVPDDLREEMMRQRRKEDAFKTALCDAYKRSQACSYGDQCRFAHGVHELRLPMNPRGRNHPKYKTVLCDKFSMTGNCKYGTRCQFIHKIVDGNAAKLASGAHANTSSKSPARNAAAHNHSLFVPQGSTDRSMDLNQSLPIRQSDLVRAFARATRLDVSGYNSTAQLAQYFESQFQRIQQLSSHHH

[4] = Luminescence Cell-Based Dose Response HTS to Identify Inhibitors of 5'UTR Stem-Loop Driven Prion Protein mRNA Translation in H4 Neuroglioblastoma Cells. [Related pubchem assays: 1827 (Project Summary), 1813 (Primary HTS)]; assay type: functional
[5] = biological target: T2, Zinc finger protein mex-5 (Caenorhabditis elegans, UniProt Q9XUB2); test: MEX-5/TCR-2 RNA interaction inhibitors, dose response, biochemical, C. elegans, fluorescence polarization (AID 1960)
T2 sequence (Q9XUB2 whole entry): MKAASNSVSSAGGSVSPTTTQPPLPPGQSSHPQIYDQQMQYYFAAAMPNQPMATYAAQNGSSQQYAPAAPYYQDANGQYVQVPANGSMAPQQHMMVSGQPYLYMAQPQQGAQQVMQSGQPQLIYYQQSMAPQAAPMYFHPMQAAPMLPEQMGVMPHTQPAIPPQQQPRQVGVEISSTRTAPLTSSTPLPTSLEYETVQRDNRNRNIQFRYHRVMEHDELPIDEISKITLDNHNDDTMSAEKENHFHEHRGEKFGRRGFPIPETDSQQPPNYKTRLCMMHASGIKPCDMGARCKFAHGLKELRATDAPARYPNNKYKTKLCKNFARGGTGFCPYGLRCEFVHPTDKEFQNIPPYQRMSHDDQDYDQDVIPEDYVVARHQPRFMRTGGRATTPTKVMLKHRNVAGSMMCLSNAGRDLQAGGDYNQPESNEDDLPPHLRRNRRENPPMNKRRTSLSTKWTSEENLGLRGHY

[6] = inhibitors of SNCA 5'UTR-driven reporter translation, confirmation, H4 neuroglioma cells, luminescence (AID 1988); assay type: functional, cell-based
[7] = biological target: Luciferin 4-monooxygenase (Photinus pyralis, UniProt P08659); test: firefly luciferase enzyme inhibitors, dose response, biochemical, luminescence (AID 1891)
Chain of Luciferin 4-monooxygenase (P08659 whole entry): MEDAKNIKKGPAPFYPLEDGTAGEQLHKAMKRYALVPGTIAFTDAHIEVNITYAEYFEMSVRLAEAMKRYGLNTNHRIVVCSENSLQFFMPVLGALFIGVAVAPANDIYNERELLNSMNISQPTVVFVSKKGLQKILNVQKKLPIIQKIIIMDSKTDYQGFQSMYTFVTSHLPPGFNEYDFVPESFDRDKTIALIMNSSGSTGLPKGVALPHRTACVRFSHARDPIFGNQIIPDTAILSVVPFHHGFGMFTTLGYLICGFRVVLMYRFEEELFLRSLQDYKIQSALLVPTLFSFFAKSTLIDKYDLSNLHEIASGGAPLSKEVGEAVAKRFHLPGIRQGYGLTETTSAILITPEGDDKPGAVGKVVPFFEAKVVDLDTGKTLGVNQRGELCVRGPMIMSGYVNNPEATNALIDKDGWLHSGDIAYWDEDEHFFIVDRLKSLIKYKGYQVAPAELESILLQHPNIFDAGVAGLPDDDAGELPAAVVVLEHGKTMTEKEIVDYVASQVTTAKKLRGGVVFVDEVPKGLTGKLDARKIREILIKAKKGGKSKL

[8] = Luminescence Cell-Based Dose Confirmation HTS to Identify Inhibitors of Platelet Dense Granule Release. [Related pubchem assays: 1663 (Primary HTS), 1678 (Summary of Project)]; assay type: functional
HEK293 = test: inhibitors of LMP1-driven NF-kB reporter, dose response, cell-based, HEK293, luciferase, cherry-pick (AID 588343); assay type: functional; conditions: Homo sapiens
cells = assay type: functional, cell-based
[9] = biological target: T3, Nuclear receptor subfamily 0 group B member 1 (Homo sapiens, UniProt P51843); assay type: functional, cell-based;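 further: HEK293T cells transfected with SF-1 and DAX-1 plus StAR promoter luciferase reporter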
T3 sequence (P51843 whole entry): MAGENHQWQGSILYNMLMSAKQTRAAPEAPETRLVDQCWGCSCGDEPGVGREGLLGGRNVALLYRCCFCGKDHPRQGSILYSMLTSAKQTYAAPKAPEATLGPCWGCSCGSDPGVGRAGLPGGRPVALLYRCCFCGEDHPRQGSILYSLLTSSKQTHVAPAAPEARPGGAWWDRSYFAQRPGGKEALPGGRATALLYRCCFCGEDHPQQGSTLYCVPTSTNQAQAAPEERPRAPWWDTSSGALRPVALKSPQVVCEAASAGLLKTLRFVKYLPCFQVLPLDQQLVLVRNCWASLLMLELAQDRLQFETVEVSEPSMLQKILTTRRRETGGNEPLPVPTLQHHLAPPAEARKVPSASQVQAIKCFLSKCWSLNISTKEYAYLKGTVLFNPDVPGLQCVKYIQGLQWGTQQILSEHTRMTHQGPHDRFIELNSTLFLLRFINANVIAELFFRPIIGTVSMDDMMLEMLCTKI

[10] = A549 cell cytotoxicity, dose response, cytotoxicity control, plate reader, cherry-pick, antagonist series (AID 743412); assay type: functional, cell-based
[11] = HepG2 cell cytotoxicity, dose response, cytotoxicity control, plate reader, cherry-pick, antagonist series (AID 743416); assay type: functional, cell-based
[12] = LGR2 antagonists, dose response, cell-based, HEK293, CRE-luciferase reporter, cherry pick, set 2 (AID 743343); assay type: functional;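 further: transfected cells were stimulated with diluted bursicon conditioned medium after compound addition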
[13] = MC4R antagonists, dose response, counter-screen for LGR2 antagonist project, cell-based, plate reader, cherry pick (AID 743444); assay type: functional;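 further: transfected HEK 293 cells stimulated with alpha-MSH peptide; potency of inhibitors of the alpha-MSH evoked signal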
[14] = HEK293 cell cytotoxicity, dose response, cytotoxicity control, plate reader, cherry-picked samples (AID 743446); assay type: functional, cell-based
[15] = inhibitors of HIV Env-driven cell fusion, dose response, cherry-pick (AID 652057); assay type: functional, cell-based
[16] = CEM21 lymphoblast cell cytotoxicity, dose response, cytotoxicity control for viral fusion inhibitor project, CellTiter-Glo luminescence, cherry-picked (AID 652042); assay type: functional, cell-based;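 further: potency for signal decrease meaning cytotoxicity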
[17] = off-target signal loss in HeLa-CEM21 co-culture – HeLa F-luc CTL cells, cherry-picked, counter-screen for HIV-1 Env fusion inhibitor project, dose response (AID 652040); assay type: functional, cell-based;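 further: potency for signal decrease marking cytotoxic or nonspecific inhibition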
Leucine aminopeptidase = biological target: T4, Leucine aminopeptidase (Plasmodium falciparum 3D7, UniProt Q8IL11); test: P. falciparum M17LAP inhibitors, primary screen, biochemical, fluorogenic H-Leu-NHMec substrate, 1536-well (AID 1619); assay type: functional
T4 sequence (Q8IL11 whole entry): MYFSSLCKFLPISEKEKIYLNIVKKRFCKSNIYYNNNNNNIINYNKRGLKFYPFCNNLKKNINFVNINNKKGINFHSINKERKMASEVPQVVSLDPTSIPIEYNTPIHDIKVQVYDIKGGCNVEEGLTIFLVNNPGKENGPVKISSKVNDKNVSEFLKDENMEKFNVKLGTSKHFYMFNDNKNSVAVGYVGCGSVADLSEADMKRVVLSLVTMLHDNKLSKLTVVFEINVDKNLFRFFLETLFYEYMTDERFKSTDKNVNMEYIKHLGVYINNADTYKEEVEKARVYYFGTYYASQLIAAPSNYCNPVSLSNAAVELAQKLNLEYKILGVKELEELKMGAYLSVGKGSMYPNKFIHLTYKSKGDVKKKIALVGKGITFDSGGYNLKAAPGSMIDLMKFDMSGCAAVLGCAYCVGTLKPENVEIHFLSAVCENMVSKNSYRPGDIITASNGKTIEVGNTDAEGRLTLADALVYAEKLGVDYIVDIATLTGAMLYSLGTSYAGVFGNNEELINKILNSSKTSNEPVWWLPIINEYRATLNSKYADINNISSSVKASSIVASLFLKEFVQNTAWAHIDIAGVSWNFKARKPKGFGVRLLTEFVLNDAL

[18] = Luminescence Cell-Based Dose Retest to Confirm Inhibitors of Cancer Stem Cells. [Related pubchem assays (depositor defined):AID2717, AID2721]; assay type: functional; conditions: Homo sapiens
[19] = Luminescence Cell-Based Dose Confirmation HTS to Identify Activators of 5'UTR Stem-Loop Driven Alpha-Synuclein mRNA Translation in H4 Neuroglioblastoma Cells. [Related pubchem assays: 1829 (Project Summary), 1814 (Primary HTS)]; assay type: functional
[20] = Luminescence Cell-Based Dose Response HTS to Identify Activators of Luciferase Translation or Activity in H4 […] Cells. [Related pubchem assays: 1829 (Project Summary), 1814 (Primary HTS)]; assay type: functional
H4 = test: Luminescence Cell-Based Dose Response HTS to Identify Activators of 5'UTR Stem-Loop Driven Prion Protein mRNA Translation in H4 Neuroglioblastoma Cells. [Related pubchem assays: 1829 (Project Summary), 1814 (Primary HTS)]; assay type: functional; conditions: Homo sapiens
[21] = inhibitors of clade B AD8 Env fusion, dose response, cell-based, cherry-pick (AID 652062); assay type: functional;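 further: luciferase signal from cell-cell fusion driven by HIV-1 clade B AD8 Env; potency is for inhibitors of fusion seen as a drop in luminescence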
[22] = ZM109 Env clade C HIV-1 fusion inhibitors, dose response, HeLa effector, CEM target cells, luciferase, cherry-pick (AID 652058); assay type: functional, cell-based
[23] = biological target: T5, Short transient receptor potential channel 4 (Mus musculus, UniProt Q9QUQ5); test: mouse TRPC4 channel activators, dose response, cell-based, HEK293 TRPC4/mu-opioid, Fluo-4 calcium (AID 434937); assay type: functional
T5 sequence (Q9QUQ5 whole entry): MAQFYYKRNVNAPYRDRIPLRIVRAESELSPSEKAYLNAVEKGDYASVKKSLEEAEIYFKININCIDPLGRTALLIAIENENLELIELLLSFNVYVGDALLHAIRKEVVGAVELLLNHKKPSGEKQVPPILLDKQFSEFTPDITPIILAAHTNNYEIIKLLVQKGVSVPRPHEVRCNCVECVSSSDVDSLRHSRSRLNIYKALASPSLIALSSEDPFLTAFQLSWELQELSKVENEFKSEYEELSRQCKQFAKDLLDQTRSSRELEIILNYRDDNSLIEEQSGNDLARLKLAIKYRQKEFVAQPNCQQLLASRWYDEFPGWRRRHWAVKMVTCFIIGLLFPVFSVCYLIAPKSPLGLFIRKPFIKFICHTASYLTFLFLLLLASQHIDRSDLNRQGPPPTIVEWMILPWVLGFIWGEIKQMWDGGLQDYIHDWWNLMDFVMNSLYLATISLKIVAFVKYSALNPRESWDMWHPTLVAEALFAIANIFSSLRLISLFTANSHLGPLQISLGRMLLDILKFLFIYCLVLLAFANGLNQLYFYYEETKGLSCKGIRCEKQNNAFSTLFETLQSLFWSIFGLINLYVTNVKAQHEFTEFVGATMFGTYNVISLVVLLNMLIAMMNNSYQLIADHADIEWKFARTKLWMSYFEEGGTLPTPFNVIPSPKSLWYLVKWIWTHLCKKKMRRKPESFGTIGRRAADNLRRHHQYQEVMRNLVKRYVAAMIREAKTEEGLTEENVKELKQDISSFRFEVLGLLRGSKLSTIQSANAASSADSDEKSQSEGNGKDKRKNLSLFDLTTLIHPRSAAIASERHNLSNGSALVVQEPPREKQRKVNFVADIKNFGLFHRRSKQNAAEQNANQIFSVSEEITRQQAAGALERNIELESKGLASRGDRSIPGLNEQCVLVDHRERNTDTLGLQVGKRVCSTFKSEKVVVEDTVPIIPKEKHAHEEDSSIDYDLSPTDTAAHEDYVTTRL

CC1CCc2[nH]c3ccc(C(=O)N(C)CC(=O)Nc4ccc(F)cc4)cc3c2C1 (stereo not drawn)
CC50 [1]: > 40 µM (active)

Cc1nc2sc(-c3ccccc3)cc2c(=O)n1N
EC50 [2]: 2.82 µM (active)
EC50 [3]: > 300 µM (not active)
EC50 [4]: 6.26 µM (active)
EC50 [5]: > 300 µM (not active)
EC50 [6]: 3.44 µM (active)
EC50 [7]: 1.01 µM (active)
EC50 [8]: 1.73 µM (active)
AC50 (HEK293): 1.04 µM (active)
IC50 (cells): > 67.6 µM (inactive)
IC50 [9]: > 67.6 µM (inactive)
AC50 [10]: 24.2 µM (active)
AC50 [11]: 50 µM (active)
AC50 [12]: 2.31 µM (active)
AC50 [13]: 2.66 µM (active)
AC50 [14]: 24.9 µM (active)

COC(=O)Cn1cnc2c(Cl)nc(F)nc21
AC50 [15]: 20.5 µM (active)
AC50 [16]: 47.3 µM (active)
AC50 [17]: 25.6 µM (active)

O=C(CSc1[nH]cnc2nncc1-2)Nc1nc(-c2ccc(F)c(F)c2)cs1
AC50 [10]: 46.1 µM (active)
AC50 [11]: > 52 µM (inactive)
AC50 [14]: > 52 µM (inactive)

O=C(CSc1nnc[nH]1)Nc1ccc2c(c1)CCC2
IC50 (Leucine aminopeptidase): 22.3 µM (active)

COc1cccc(/C=C/c2ccc3ccccc3n2)c1OC(C)=O
AC50 [18]: 6.67 µM (active)
AC50 (HEK293): 1.87 µM (active)
AC50 [10]: 25.3 µM (active)
AC50 [11]: 33.3 µM (active)
AC50 [12]: 2.77 µM (active)
AC50 [13]: 2.59 µM (active)
AC50 [14]: 30.1 µM (active)

Cc1nnc(SC(=O)N2c3ccccc3Sc3ccccc32)s1
EC50 [19]: > 120 µM (not active)
EC50 [20]: > 60 µM (not active)
EC50 (H4): > 120 µM (not active)
AC50 [16]: 10.6 µM (active)
AC50 [17]: 30.8 µM (active)
AC50 [21]: 3.79 µM (active)

CC1(Oc2ccc3ccccc3c2)CCN(Cc2cccn2-c2nccs2)C1 (stereo not drawn)
AC50 [15]: 10.9 µM (active)
AC50 [16]: 51.9 µM (active)
AC50 [22]: 12.3 µM (active)
AC50 [17]: 14.7 µM (active)
AC50 [21]: 29.4 µM (active)

Cc1ccc(NC(=O)CSc2ncc(S(=O)(=O)c3ccccc3)c(O)n2)cc1C
IC50 (Leucine aminopeptidase): 4.56 µM (active)

CCOc1cc2c3c(c1)C(C)CC(C)(C)N3C(=O)C2=O (stereo not drawn)
AC50 [15]: 8.22 µM (active)
AC50 [16]: 50.9 µM (active)
AC50 [22]: 6.91 µM (active)
AC50 [17]: 12.2 µM (active)
AC50 [21]: 12.7 µM (active)

COc1ccc(C(CCNCc2ccc(N(C)C)cc2)c2ccccc2)cc1 (stereo not drawn)
EC50 [23]: 5.96 µM (active)
AC50 [15]: 4.13 µM (active)
AC50 [16]: 18.2 µM (active)
AC50 [22]: 14.4 µM (active)
AC50 [17]: 17.5 µM (active)
AC50 [21]: 26.1 µM (active)
